Test results taken from patent publication US20070292888A1, “Methods for Measuring Enzyme Activities in Cells, Blood, Tumors and Tissues” (GEN-PATH PHARMACEUTICALS, INC., priority 2004, published 2007).

Molecular target: T1, kGDH (Homo sapiens, UniProt Q02218)
T1 construct: Log-phase growing cells were trypsinized and resuspended in TDM; endogenous in cells
T1 sequence (Q02218 41-1023): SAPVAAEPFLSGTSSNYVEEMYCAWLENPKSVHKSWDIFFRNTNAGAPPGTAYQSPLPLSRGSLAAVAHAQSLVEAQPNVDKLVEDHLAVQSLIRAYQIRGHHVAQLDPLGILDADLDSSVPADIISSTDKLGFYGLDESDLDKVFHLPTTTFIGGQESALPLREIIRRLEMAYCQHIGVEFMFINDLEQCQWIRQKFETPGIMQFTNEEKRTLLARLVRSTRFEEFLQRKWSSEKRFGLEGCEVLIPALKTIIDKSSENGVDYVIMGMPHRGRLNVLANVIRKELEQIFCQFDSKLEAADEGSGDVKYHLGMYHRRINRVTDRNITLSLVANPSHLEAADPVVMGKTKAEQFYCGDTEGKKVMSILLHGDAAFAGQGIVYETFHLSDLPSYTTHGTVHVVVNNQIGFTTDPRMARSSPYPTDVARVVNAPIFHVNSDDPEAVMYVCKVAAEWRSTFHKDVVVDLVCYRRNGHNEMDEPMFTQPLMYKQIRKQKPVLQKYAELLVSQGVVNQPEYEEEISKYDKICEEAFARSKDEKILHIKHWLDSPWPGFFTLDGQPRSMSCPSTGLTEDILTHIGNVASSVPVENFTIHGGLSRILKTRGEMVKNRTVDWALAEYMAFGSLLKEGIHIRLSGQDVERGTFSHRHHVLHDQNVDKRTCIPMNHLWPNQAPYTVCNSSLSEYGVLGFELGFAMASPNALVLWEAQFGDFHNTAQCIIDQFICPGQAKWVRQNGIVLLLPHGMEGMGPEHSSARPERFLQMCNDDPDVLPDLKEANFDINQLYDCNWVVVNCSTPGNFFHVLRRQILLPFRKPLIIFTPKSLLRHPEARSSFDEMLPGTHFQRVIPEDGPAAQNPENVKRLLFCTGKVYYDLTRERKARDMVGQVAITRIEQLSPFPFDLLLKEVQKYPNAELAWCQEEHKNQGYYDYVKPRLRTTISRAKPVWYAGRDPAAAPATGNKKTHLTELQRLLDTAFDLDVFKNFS
T1 sequence (P36957 68-453 partner): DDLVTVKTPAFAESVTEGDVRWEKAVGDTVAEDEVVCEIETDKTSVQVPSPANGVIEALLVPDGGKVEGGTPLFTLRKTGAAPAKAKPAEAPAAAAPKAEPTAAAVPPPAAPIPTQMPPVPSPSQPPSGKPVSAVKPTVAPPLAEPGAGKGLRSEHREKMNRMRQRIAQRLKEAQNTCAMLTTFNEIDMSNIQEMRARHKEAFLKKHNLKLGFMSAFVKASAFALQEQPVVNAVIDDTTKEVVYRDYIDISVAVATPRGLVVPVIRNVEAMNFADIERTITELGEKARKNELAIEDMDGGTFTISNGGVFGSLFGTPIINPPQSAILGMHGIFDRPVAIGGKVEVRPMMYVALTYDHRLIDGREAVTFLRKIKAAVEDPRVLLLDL
T1 sequence (P09622 36-509 partner): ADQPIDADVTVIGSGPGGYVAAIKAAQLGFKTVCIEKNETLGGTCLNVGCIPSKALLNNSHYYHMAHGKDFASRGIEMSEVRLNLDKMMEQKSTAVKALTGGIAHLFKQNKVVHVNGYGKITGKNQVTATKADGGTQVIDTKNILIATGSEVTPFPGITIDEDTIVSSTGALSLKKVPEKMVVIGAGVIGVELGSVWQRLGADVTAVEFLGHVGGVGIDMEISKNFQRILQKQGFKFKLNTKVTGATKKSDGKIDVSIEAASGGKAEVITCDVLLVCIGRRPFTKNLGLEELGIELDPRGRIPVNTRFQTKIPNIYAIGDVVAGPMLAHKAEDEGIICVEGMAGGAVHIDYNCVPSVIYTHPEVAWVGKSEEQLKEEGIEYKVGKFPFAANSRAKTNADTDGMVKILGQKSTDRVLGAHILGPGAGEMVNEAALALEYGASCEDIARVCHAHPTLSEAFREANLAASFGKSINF
Test: Cell-based kGDH inhibition in thiamine-depleted media, 96-well format
Conditions: treated cells, 48 hours treatment
Method: We determined the IC50 of compounds that inhibit the activity of the TPP utilizing enzymes TK, kGDH and PDH in a convenient 96-well format using an optimized version of the method described in the previous Examples.
The high thiamine levels in conventional cell culture media (e.g., DMEM (12 μM), RPMI (3 μM)) masks the inhibitory effect of such inhibitors. To measure the IC50 of such inhibitors, thus, a thiamine depleted DMEM, containing all the ingredients of normal DMEM except for thiamine (HyClone, custom order), was used. Thiamine-depleted media (TDM) is made up with thiamine-depleted DMEM, 10% FBS, which contains negligible amount of thiamine (estimated to be ˜3-5% nM) and 1% Penicillin-streptomycin.
Log-phase growing cells were trypsinized and resuspended in TDM. Optimization of the initial cell counts is recommended for each cell line to ensure that enzyme activity can be observed at the beginning and that healthy growth can continue. For cell lines that have a doubling time of approximately 24 hours and cellular transketolase levels high enough to be reliably detected with five thousand (5K) cells such as HCT116 and HT1080, 8K cells are recommended.
Media containing 8K cells (95 μl) were used to seed individual wells in a 96-well clear-bottom cell cultured treated sterile plate. […] Enzymatic inhibition was expressed as percent of control wells that were not treated with compounds. […]

An IC50 of 86 nM was found for Cc1ccc(C[n+]2csc(CCO)c2C)c(N)n1 [N3PT, 3-[(2-amino-6-methyl-3-pyridinyl)methyl]-5-(2-hydroxyethyl)-4-methyl thiazolium] in this work.
